A short description of series [1]: Pharmacokinetic study after oral administration. Type of series: in vivo, SD rats. The method, then:
Nine male SD rats were randomly divided into three groups (n = 3). […] Moreover, 500 μL of blood was taken before administration, and 300 μL of blood was taken from the heart at 0.25, 0.5, 1, 2, 4, 6, 9, 12, and 24 h after administration. The plasma samples were centrifuged at 3000 r/min for 10 min. Subsequently, 100 μL of plasma was mixed with 10 μL methanol containing internal standard (rheum emodin, 20 μg/mL). After vortexing for 3 min, 250 μL ethyl acetate was added, and the mixture was centrifuged at 3000 r/min for 10 min. The extraction residue was reconstituted in 100 μL of mobile phase and determined by HPLC. The mobile phase was a mixture of acetonitrile: water (containing 2% acetic acid) (52:48, v/v), the flow rate was 1 mL/min, and the detection wavelength was 426 nm. Pharmacokinetic parameters were calculated using PK SOLVER for the noncompartmental model.

Series [2] in a line: In vivo absorption in ligated small intestinal loops (CLSM). The conditions noted are these: SD rats, 2 h. The procedure: In vivo transportation of the FITC‐labeled PA‐N‐2‐HACC NPs and FITC‐labeled PA‐N‐2‐HACC‐Cys NPs through the epithelial mucosa was qualitatively analyzed using […] in vivo absorption study.[69] Male SD rats (6–8 weeks, 230–250 g) were anesthetized by chloral hydrate, and 2‐cm sections of small intestinal loops were ligated at both ends. Then, 100 μL of 1 mg/mL FITC‐labeled PA‐N‐2‐HACC NPs and PA‐N‐2‐HACC‐Cys NPs were administered into different intestinal loops of the same SD rats (n = 3). […] After 2 h, the rats were sacrificed, and the loops treated with the FITC‐labeled NPs were withdrawn and washed with PBS (pH = 7.4). After fixation in 4% paraformaldehyde for 4 h and dehydration in 30% sucrose overnight, the loops were embedded in optimal cutting temperature compound and sectioned into 10‐μm slices using a freezing microtome (Leica CM1860, Wetzlar, Germany). Cell nuclei were stained with Hoechst 33342 for 10 min and visualized using CLSM.
All the animal care and experimental protocols were in accordance with the “National Research Council's Guide for the Care and Use of Laboratory Animals”. Male SD rats (6-8 weeks, 230-250 g) were anesthetized by chloral hydrate, and 2 cm sections of small intestinal loops were ligated at both ends. […]

For another series, the system named is HT29‐MTX. Briefly: Cellular uptake of the NPs loaded with CUR (CLSM, HPLC). Type of series: cell-based. To be noted: CUR 5–20 μg/mL, 2 and 4 h, CLSM fluorescence / HPLC. The procedure: HT29‐MTX was seeded in the 12‐well plate with 2 × 10^5 cells/well and incubated overnight. […] After co‐incubation for prescribed time intervals (2 and 4 h), the cells were cleaned with PBS and lysed by 1% Triton X‐100 at 4°C. […] The cellular uptake efficiency was calculated using Formula (11). In addition, after fixation with 4% paraformaldehyde, the HT29‐MTX stained with Hoechst 33342 were observed by CLSM. (11) Cellular uptake%=Cellular intake ofCUR/Total amount ofCURadded×100.
HT29-MTX was seeded in the 12-well plate with 2×10^5 cells/well and incubated overnight. […] After co-incubation for prescribed time intervals (2 and 4 h), the cells were cleaned with PBS and lysed by 1% Triton X-100 at 4 ℃. […] In addition, the HT29-MTX stained with Hoechst 33342 were observed by CLSM.

A short description of series [3]: Cytotoxicity assay (CCK‐8) on HepG‐2. Type of series: cell-based. The conditions noted are these: human, HepG-2 cells; read-out: Cell viability of HepG‐2. The procedure: HT29‐MTX and HepG‐2 were cultured in RPMI medium and MEM, respectively, supplemented with 10% fetal bovine serum, 1% (v/v) penicillin, and streptomycin. HT29‐MTX or HepG‐2 were seeded (100 μL) into a 96‐well plate at a cell density of 1 × 10^4 cells/well. […] After co‐incubation for 24 h, the cytotoxicity was analyzed by CCK‐8 assay (Cell Counting Kit‐8, Beyotime).

Another series concerns DSS‐induced colitis. Put plainly: Efficacy on DSS‐induced colitis mice. Type of series: in vivo, BALB/c mice. To be noted: daily oral 7 days, CUR 50 mg/kg. The procedure:
Male BALB/c mice (6–8 weeks, 20–25 g) were randomly divided into five groups with eight mice in each group after 1 week of acclimation. Except for the normal control group, the remaining four groups were given 3% DSS instead of ordinary drinking water for 7 days, during which they were fed normally to establish the mice colitis model. […] The body weight of the mice was recorded every day, and DAI was measured to assess the severity of the colitis according to body weight loss, character of stool, and the degree of hematochezia (Table 3).
After treatment with different formulas, the mice were sacrificed after anesthesia, the colon length was measured, and the colon tissue was fixed with 10% formalin and stained with hematoxylin and eosin (H&E) for pathological examination. To count colonic goblet cells, fixed colonic tissues were also stained using Alcian blue. […]
In addition, a portion of collected colon tissue (50 mg) was homogenized with RIPA lysis buffer (Thermo Fisher, Shanghai, China) to extract total proteins. […] The protein content of supernatant was quantified using a bicinchoninic acid (BCA) protein assay kit (Thermo Fisher, Shanghai, China). The concentration of pro‐inflammatory cytokines such as TNF‐α and IL‐1β was measured by ELISA kit (Enzyme‐linked Biotechnology Co., Ltd., China).

The mark [4] stands for this setting: male, SD, rat, plasma, po, 50 mg/kg.

The term Cmax denotes the peak of the concentration-time curve. Usually MRT stands for the average time that molecules of a dose stay in the body. As a reminder, the Tmax is the time from dosing to the highest level. By half-life is commonly meant the time in which the quantity being followed falls by half. Lower therefore signals rapid decline. One may read the viability as a per cent measure of how many cells are alive, often set against a control. For the compound `COc1cc(/C=C/C(=O)CC(=O)/C=C/c2ccc(O)c(OC)c2)ccc1O` [CUR, Curcumin], the CL in series [1] (SD rats, oral, CUR dose 50 mg/kg, n = 3) is 782.7 ± 18.7 mL/min/kg. In series [1] (setting [4]), the concentration peaked (Cmax) at 41 ± 10 ng/mL, the MRT was 4.71 ± 0.48 h, the Tmax was 1 h and the half-life was 3.27 ± 0.32 h. Also, in series [1] (male, SD, rat, plasma, po, 50 mg/kg, read-out: AUC0‐∞), the AUC was 252 ± 110 ng·h/mL. Also, the “Fluorescence signal in intestinal tissue (in vivo absorption, in words)” value in series [2] is recorded as “weak green fluorescence signal”. In the series on HT29‐MTX, the “Cellular uptake of CUR in HT29‐MTX (in words)” value is “weak fluorescence intensity”. Further, the viability at 24 h, 12.5 μg/mL in series [3] came out at 77.5%. Besides, in the series on DSS‐induced colitis, the “Clinical symptoms (body weight loss, colon length shortening, DAI increase)” value is recorded as “significantly improved” and the “Colonic epithelial mucosa / goblet cells (Alcian blue staining)” value is on record as “relieved the damage caused by DSS”.

The record behind these values is publication PMC10189451, “Palmitic acid‐ and cysteine‐functionalized nanoparticles overcome mucus and epithelial barrier for oral delivery of drug” (Bioengineering & Translational Medicine, 2023).
